The text below walks through data of ChEMBL document CHEMBL1153145, “Novel lead for potent inhibitors of breast cancer resistance protein (BCRP)” (Bioorg Med Chem Lett, 2010).

The target in test [1] is Multidrug resistance-associated protein 1 (Homo sapiens, UniProt P33527). In words: Inhibition of MRP1 assessed as calcein AM accumulation by fluorescence assay.
For test [2], the target named is T1, Broad substrate specificity ATP-binding cassette transporter ABCG2 (Homo sapiens, UniProt Q9UNQ0).
T1 sequence (Q9UNQ0 whole entry): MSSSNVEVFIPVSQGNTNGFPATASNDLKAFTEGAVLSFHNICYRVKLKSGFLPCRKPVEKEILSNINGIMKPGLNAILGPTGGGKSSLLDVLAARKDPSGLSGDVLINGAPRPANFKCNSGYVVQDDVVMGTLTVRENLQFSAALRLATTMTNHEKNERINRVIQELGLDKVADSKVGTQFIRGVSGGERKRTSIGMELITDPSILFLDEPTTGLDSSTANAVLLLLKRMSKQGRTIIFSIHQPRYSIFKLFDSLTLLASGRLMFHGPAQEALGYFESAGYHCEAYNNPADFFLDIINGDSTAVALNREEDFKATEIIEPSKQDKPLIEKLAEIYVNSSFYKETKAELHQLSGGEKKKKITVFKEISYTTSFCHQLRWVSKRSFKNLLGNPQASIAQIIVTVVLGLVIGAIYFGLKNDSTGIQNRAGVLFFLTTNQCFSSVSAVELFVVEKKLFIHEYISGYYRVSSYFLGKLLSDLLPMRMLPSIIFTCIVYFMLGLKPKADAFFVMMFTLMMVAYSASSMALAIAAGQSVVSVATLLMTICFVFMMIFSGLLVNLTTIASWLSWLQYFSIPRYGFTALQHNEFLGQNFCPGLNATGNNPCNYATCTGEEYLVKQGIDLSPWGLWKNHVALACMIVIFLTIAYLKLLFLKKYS
In words: Inhibition of BCRP expressed in MDCK cells by pheophorbide A assay. Format: cell-based.

The target of test [3] is T1, Broad substrate specificity ATP-binding cassette transporter ABCG2. As to the kind of experiment: Inhibition of BCRP expressed in MCF7 MX cells by Hoechst 33342 staining. Format: cell-based.

Chain of Multidrug resistance-associated protein 1 (P33527 whole entry): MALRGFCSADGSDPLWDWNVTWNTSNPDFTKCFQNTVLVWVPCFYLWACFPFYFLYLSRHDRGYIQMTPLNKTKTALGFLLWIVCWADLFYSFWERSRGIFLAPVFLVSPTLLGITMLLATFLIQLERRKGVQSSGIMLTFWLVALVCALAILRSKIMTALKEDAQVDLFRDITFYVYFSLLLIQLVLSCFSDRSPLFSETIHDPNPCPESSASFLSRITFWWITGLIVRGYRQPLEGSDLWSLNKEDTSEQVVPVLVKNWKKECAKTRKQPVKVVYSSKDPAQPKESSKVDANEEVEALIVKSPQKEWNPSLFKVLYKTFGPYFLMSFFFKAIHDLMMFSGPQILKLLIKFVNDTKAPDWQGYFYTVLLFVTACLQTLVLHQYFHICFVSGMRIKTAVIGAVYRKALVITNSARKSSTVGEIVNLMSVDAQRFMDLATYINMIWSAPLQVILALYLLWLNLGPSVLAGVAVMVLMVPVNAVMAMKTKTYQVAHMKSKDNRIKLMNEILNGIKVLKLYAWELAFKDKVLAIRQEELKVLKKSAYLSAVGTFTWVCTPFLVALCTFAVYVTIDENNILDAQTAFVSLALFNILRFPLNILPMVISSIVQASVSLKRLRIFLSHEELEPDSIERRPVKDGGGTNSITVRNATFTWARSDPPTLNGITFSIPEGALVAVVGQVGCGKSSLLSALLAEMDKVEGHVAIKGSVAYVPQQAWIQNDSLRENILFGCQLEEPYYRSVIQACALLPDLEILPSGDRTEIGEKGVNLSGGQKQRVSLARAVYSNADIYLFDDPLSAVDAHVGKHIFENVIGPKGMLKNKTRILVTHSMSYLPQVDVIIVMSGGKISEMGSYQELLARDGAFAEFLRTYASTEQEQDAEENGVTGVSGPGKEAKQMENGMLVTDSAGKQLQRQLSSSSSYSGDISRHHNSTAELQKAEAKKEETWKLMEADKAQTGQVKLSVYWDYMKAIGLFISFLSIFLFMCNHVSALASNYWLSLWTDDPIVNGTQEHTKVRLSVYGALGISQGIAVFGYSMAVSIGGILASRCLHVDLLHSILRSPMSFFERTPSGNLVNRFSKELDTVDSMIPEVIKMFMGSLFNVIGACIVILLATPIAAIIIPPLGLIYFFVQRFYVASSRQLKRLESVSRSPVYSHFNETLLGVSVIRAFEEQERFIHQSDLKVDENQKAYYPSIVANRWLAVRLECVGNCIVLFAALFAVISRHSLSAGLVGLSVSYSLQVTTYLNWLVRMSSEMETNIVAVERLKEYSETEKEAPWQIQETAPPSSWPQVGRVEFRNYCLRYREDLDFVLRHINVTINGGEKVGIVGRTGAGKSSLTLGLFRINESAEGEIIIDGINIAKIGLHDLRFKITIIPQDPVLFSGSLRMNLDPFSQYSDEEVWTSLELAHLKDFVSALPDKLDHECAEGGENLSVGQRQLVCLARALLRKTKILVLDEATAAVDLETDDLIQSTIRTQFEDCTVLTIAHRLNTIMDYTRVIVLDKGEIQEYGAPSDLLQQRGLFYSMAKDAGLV

Regarding `COc1ccc(C(=O)Nc2ccccc2C(=O)Nc2ccc(CCN3CCc4cc(OC)c(OC)cc4C3)cc2)cc1OC`, the results for the 50% inhibitory concentration (IC50) in test [1], in test [2] and in test [3] were above 20 µM, 0.86 µM and 0.93 µM, respectively.
Regarding `O=C(Nc1ccc(CCN2CCc3ccccc3C2)cc1)c1ccccc1[N+](=O)[O-]`, the figures for the IC50 in test [2] and in test [3] were 45.7 µM and 51.3 µM, respectively.
For `Nc1ccccc1C(=O)Nc1ccc(CCN2CCc3ccccc3C2)cc1`, the IC50 in test [2] worked out at 20.9 µM; in test [3], 17.8 µM.
Regarding `COc1cc2c(cc1OC)CN(CCc1ccc(NC(=O)c3ccc(N)cc3)cc1)CC2`, the IC50 in test [2] amounted to 98.2 µM; in test [3], 219 µM.
Take `COc1cc2c(cc1OC)CN(CCc1ccc(NC(=O)c3cc(OC)c(OC)cc3NC(=O)c3cnc4ccccc4c3)cc1)CC2`: the IC50 in test [2] amounted to 0.85 µM; in test [3], 0.68 µM.
With `COc1cc2c(cc1OC)CN(CCc1ccc(NC(=O)c3ccccc3N)cc1)CC2`, the figures for the IC50 in test [2] and in test [3] were 20.7 µM and 32.4 µM, respectively.
On to `COc1cc2c(cc1OC)CN(CCc1ccc(NC(=O)c3ccccc3[N+](=O)[O-])cc1)CC2`, for which the IC50 in test [2] came out at 40 µM; in test [3] it was 77.6 µM.
For `COc1cc2c(cc1OC)CN(CCc1ccc(NC(=O)Nc3ccccc3N)cc1)CC2` the same measures were 58.4 µM and 66.1 µM.
Turning to `Nc1ccccc1NC(=O)Nc1ccc(CCN2CCc3ccccc3C2)cc1`, the IC50 was found to be 74.1 µM in test [2] and 102 µM in test [3].
On to `COc1cc2c(cc1OC)CN(CCc1ccc(NC(=O)Nc3ccc(N)cc3)cc1)CC2`, for which the IC50 in test [2] worked out at 46.4 µM; in test [3] it was 74.1 µM.
With `COc1cc2c(cc1OC)CN(CCc1ccc(NC(=O)Nc3ccc([N+](=O)[O-])cc3)cc1)CC2`, the concentration for half-maximal inhibition (IC50) was 2.61 µM in test [2] and 3.89 µM in test [3].
In the case of `COc1cc2c(cc1OC)CN(CCc1ccc(NC(=O)Nc3ccccc3[N+](=O)[O-])cc1)CC2`, the 50% inhibitory concentration (IC50) in test [2] came to 9.08 µM; in test [3], 10.2 µM.
The matching figures for `O=C(Nc1ccc(CCN2CCc3ccccc3C2)cc1)Nc1ccccc1[N+](=O)[O-]`: 8.71 µM and 6.76 µM.
The matching figures for `COc1cc2c(cc1OC)CN(CCc1ccc(NC(=O)c3ccc([N+](=O)[O-])cc3)cc1)CC2`: 4.38 µM and 6.92 µM.
In the case of `COc1cc2c(cc1OC)CN(CCc1ccc(NC(=O)c3ccccc3NC(=O)Nc3ccc([N+](=O)[O-])cc3)cc1)CC2`, the figures for the IC50 in test [1], in test [2] and in test [3] were above 20 µM, 0.5 µM and 0.54 µM, respectively.
The matching figures for `COc1cc2c(cc1OC)CN(CCc1ccc(NC(=O)c3ccccc3NC(=O)c3ccc([N+](=O)[O-])cc3)cc1)CC2`: above 20 µM, 0.63 µM and 0.69 µM.
Regarding `COc1ccc(C(=O)Nc2ccccc2NC(=O)Nc2ccc(CCN3CCc4cc(OC)c(OC)cc4C3)cc2)cc1OC`, the IC50 was 6.98 µM in test [2] and 10.2 µM in test [3].
